Entries after “also recorded” stand apart in the source; their conditions may differ.
Legend:
RARα promoter = RARα promoter luciferase reporter, MCF-7 cells; format: cell-based, human; conditions: without or with 10^−9 M E2
Procedure: (§1) Transfection and processing of cells were done as described in legend of FIG. 5.
(§2) Culturing and transfection of the mammalian COS-1 and […] MDA-MB-231 cells were described previously (Muyan, M. et al. (2001) Mol Cell Endocrinol 182,249-263; Yi, P. et al. (2002) Mol Endocrinol 16, 1810-1827), with the exceptions that 48 well cell culture plates were used and Trans-IT LTI transfection reagent (Mirus Corp., Madison, Wis.). Luciferase assays were performed with a Dual Luciferase Assay kit (Promega) according to the manufacture's recornmendations. Steroid hormones and 9-cis retinoic acid were purchased from Sigma-Aldrich (St. Louis, Mo.). For transfection of MDA-MB-231 and MCF-7 cells, the cells were incubated for three days in a phenol red-free DMEM supplemented with 10% charcoal-dextran treated fetal bovine serum (CD-FBS). Cells were transfected with appropriate expression vectors using Lipofectamine 2000 transfection reagent (Invitrogen).

[1] = tested on: pS2, C3 and Oxytocin promoter constructs; experiment: pS2, C3 and Oxytocin promoter luciferase reporters, MCF-7 cells; format: cell-based, human; conditions: absence or presence of 10^−9 M E2, FIG. 6A
Procedure: as §1, §2

MCF-7 cells = experiment: cell cycle analysis (FACS, EGFP-positive cells), transfected MCF-7 cells; format: cell-based, human
Procedure: as §1
MDA-MB-231 and MCF-7 cells were grown as described above. Cells were then transiently transfected with the EGFP vector bearing a cDNA for ERα, CDC or an EBA. Twenty-four hours after transfection, cells were collected by trypsinization, washed in phosphate buffered saline (PBS) and fixed with 1% paraformaldehyde in PBS for one hour. Cells were permeabilized in 70% Ethanol overnight and stained with 50 μg/ml propidium iodide (PI, Sigma-Aldrich) for one hour for flow cytometry analysis. Samples were analyzed on a FACS EPICS Elite EPS flow cytometer (Coulter Corp., Hialeah, Fla.). The percentages of cells at G1 phase were assessed among treatment groups and expressed as percent change compared to cells transfected with EGFP vector bearing no cDNA.

human C3 gene promoter = experiment: C3 promoter luciferase reporter, COS-1 cells; format: cell-based, African green monkey
Excerpt: Transfection and processing of cells were done as described in legend of FIG. 7. Shown are the mean±SEM of three independent experiments performed in duplicate and expressed as fold changes compare to the parent expression vector (V), which was set to one.
(§3) The CatD and C3 promoters were generated by PCR using pCD3542 (Augereau P. et al. Mol Endocr 8:693-703) and pC3TI (Fan JD. (1996) Mol Endocrinol 10: 1605-16) reporter plasmids as templates, respectively. A fragment of 730 bp [−750 to −22, +1 is referred to the first ATG, (Parker, M. G. (1998) Biochem Soc Symp 63, 45-50)] of the promoter region of CatD gene or 580 bp [−516 to +61, +1 as the transcription start site) of the C3 gene (Tzukerman, M. T. et al. (1994) Mol Endocrinol 8, 21-30)] was generated. PCR fragments were then inserted into the reporter plasmid pGL3-Basic linearized with appropriate restriction enzymes.
(§4) COS-1 cells were transfected with a reporter construct bearing CatD or C3 promoter together with the expression vector bearing none (V, as control), cDNA for ERα or an EBR. Following a transfection, cells were treated without or with 10^−9 M E2 or 10^−7 M 4-OHT for 24 h.

[2] = tested on: human Catepsin D (CatD) gene promoter; experiment: CatD promoter luciferase reporter, COS-1 cells; format: cell-based, African green monkey; conditions: without or with 10^−9 M E2 or 10^−7 M 4-OHT, 24 h
Excerpt: Transfection and processing of cells were done as described in legend of FIG. 7. The reporter vector contains the human Catepsin D (CatD) gene promoter that drives the firefly luciferase cDNA expression. The mean±SEM indicates three independent experiments performed in duplicate.
as §3, §4

[3] = tested on: ERE-driven TATA box promoter; experiment: luciferase reporter, consensus ERE upstream of TATA box promoter, COS-1 cells; format: cell-based, African green monkey
Excerpt: Proteins were probed with a Flag antibody followed by a fluorescein-conjugated secondary antibody for visualization (FITC). DAPI staining indicates the nucleus. […] (*) denotes mutants with an impaired DNA binding finction, while VP16* depicts the activation function defective construct. The reporter plasmid contained either one (1× ERE) or two copies (2× ERE) of the consensus ERE in tandem located upstream of a simple promoter, TATA box, driving the expression of the firefly luciferase cDNA. The transfection efficiency was monitored by the co-expression of 0.5 ng of a reporter plasmid, pCMV-RL that drives the expression of Renilla luciferase cDNA. Cells were treated with or without 10^−9 M E2 for 24 h. The cell extracts were assayed for luciferase enzymes, and the normalized firefly/Renilla luciferase activities are presented as fold changes compare to the control, which was set to one. Shown are the mean±SEM of three independent experiments performed in duplicate.
Culturing and transfection of the mammalian COS-1 and […] MDA-MB-231 cells were described previously (Muyan, M. et al. (2001) Mol Cell Endocrinol 182,249-263; Yi, P. et al. (2002) Mol Endocrinol 16, 1810-1827), with the exceptions that 48 well cell culture plates were used and Trans-IT LTI transfection reagent (Mirus Corp., Madison, Wis.). […]

In the case of C[C@]12CC[C@@H]3c4ccc(O)cc4CC[C@H]3[C@@H]1CC[C@@H]2O [Construct E2, estradiol 17β], the “transcriptional response from the RARα promoter” value (RARα promoter) is reported as “enhanced the reporter activity”, the “reporter enzyme activity from pS2, C3 and Oxytocin promoter constructs” value [1] is reported as “enhanced reporter enzyme activity” and the “G1/S phase transition / cell cycle progression” value (MCF-7 cells; charcoal-dextran treated FBS, E2 10^−9 M) is reported as “enhanced the G1/S phase transition”.

In the case of 4-hydroxytamoxifen [Construct 4-OHT], the “effect on C3 promoter reporter enzyme activity” value (human C3 gene promoter) is reported as “effectively decreased the transcription induction”, the “effect on CatD promoter reporter enzyme activity” value [2] is reported as “did not alter the transcription of the reporter enzyme mediated by ERα; also recorded: prevented the E2-ERα complex-mediated augmentation” and the “cells accumulated in the G1 phase” value (MCF-7 cells; medium with untreated FBS, 4-OHT 10^−7 M) is reported as “increased the cell population in the G1 phase”.

For “VP16: activation domain of the herpes simplex virion protein VP16 alone, residues 403-490”, the “effect on transcription from ERE-TATA reporter” value [3] was “did not alter the transcription”.

— patent US20070192880A1, “Horming response element binding transregulators” (UNIVERSITY OF ROCHESTER, priority 2003, published 2007)
